From PubChem BioAssay (NCI)
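A five-concentration, 48-hour dose response in 96-well plates underlies each endpoint, interpolated linearly between surrounding concentrations. The concentration for full growth arrest is given as TGI.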

Tests used:
Experiment in all cases: NCI-60 cell line screen, 48 h
SNB-19 CNS = test system: SNB-19 CNS
U251 CNS = test system: U251 CNS
SW-620 colon = test system: SW-620 colon
MDA-MB-231 breast = test system: MDA-MB-231 breast
SF-539 CNS = test system: SF-539 CNS
CCRF-CEM leukemia = test system: CCRF-CEM leukemia
NCI-H460 lung = test system: NCI-H460 lung
MOLT-4 leukemia = test system: MOLT-4 leukemia
OVCAR-3 ovarian = test system: OVCAR-3 ovarian
UACC-62 melanoma = test system: UACC-62 melanoma

N#Cc1sc2c(c1OC(=O)c1ccco1)c(=O)n(-c1ccccc1)c(=S)n2-c1ccccc1
TGI (SNB-19 CNS): > 100 µM
TGI (U251 CNS): 80.9 µM
TGI (SW-620 colon): > 100 µM
TGI (MDA-MB-231 breast): 73.8 µM
TGI (SF-539 CNS): 52.7 µM
TGI (CCRF-CEM leukemia): > 10 µM
TGI (NCI-H460 lung): > 100 µM
TGI (MOLT-4 leukemia): 43.4 µM
TGI (OVCAR-3 ovarian): 75.5 µM
TGI (UACC-62 melanoma): 34.1 µM

C[Si](C)(C)OC1(C#N)c2ccccc2CCCC12CCCC2 (stereo not given)
TGI (SNB-19 CNS): > 100 µM
TGI (U251 CNS): 92.2 µM
TGI (SW-620 colon): > 100 µM
TGI (MDA-MB-231 breast): > 100 µM
TGI (SF-539 CNS): > 100 µM
TGI (CCRF-CEM leukemia): 46 µM
TGI (NCI-H460 lung): > 100 µM
TGI (MOLT-4 leukemia): 61.7 µM
TGI (OVCAR-3 ovarian): > 100 µM
TGI (UACC-62 melanoma): > 100 µM

O=C(O)C(Cc1ccccc1)Cc1ccccc1
TGI (SNB-19 CNS): > 100 µM
TGI (U251 CNS): > 100 µM
TGI (SW-620 colon): > 100 µM
TGI (MDA-MB-231 breast): > 100 µM
TGI (SF-539 CNS): > 100 µM
TGI (CCRF-CEM leukemia): > 100 µM
TGI (NCI-H460 lung): > 100 µM
TGI (MOLT-4 leukemia): > 100 µM
TGI (OVCAR-3 ovarian): > 100 µM
TGI (UACC-62 melanoma): > 100 µM

C=C(C)C1(Sc2ccc(OC)cc2)CC1
TGI (SNB-19 CNS): > 100 µM
TGI (U251 CNS): > 100 µM
TGI (SW-620 colon): > 100 µM
TGI (MDA-MB-231 breast): > 100 µM
TGI (SF-539 CNS): > 100 µM
TGI (CCRF-CEM leukemia): > 100 µM
TGI (NCI-H460 lung): > 100 µM
TGI (MOLT-4 leukemia): 40.3 µM
TGI (OVCAR-3 ovarian): 29.7 µM
TGI (UACC-62 melanoma): > 100 µM

CCSC12OC3(CCCCCN3C1=O)C1C(=O)N(c3ccccc3)C(=O)C12 (stereo not given)
TGI (SNB-19 CNS): > 100 µM
TGI (U251 CNS): > 100 µM
TGI (SW-620 colon): > 100 µM
TGI (MDA-MB-231 breast): > 100 µM
TGI (SF-539 CNS): > 100 µM
TGI (CCRF-CEM leukemia): > 100 µM
TGI (NCI-H460 lung): > 100 µM
TGI (MOLT-4 leukemia): > 100 µM
TGI (OVCAR-3 ovarian): > 100 µM
TGI (UACC-62 melanoma): > 100 µM

N=C(N)SCc1nc(-c2ccc(Cl)cc2)no1
TGI (SNB-19 CNS): > 100 µM
TGI (U251 CNS): 78.8 µM
TGI (SW-620 colon): 37.2 µM
TGI (MDA-MB-231 breast): 35.9 µM
TGI (SF-539 CNS): 41.4 µM
TGI (CCRF-CEM leukemia): 31.8 µM
TGI (NCI-H460 lung): > 100 µM
TGI (MOLT-4 leukemia): 22.6 µM
TGI (OVCAR-3 ovarian): 26.2 µM
TGI (UACC-62 melanoma): 24.4 µM

N=C1C=CC(=C(c2ccc(N)cc2)c2ccc(N)cc2)C=C1
TGI (SNB-19 CNS): 18.6 µM
TGI (U251 CNS): 22.6 µM
TGI (SW-620 colon): 19.2 µM
TGI (MDA-MB-231 breast): 32.5 µM
TGI (SF-539 CNS): 13.1 µM
TGI (CCRF-CEM leukemia): 19.5 µM
TGI (NCI-H460 lung): 36.9 µM
TGI (MOLT-4 leukemia): 42.1 µM
TGI (OVCAR-3 ovarian): 25.2 µM
TGI (UACC-62 melanoma): 15.3 µM

CC1CN(c2cc3c(cc2F)c(=O)c(C(=O)O)cn3-c2ccc(N3CCN(C)CC3)cn2)CC(C)N1 (stereo not given)
TGI (SNB-19 CNS): > 100 µM
TGI (U251 CNS): > 100 µM
TGI (SW-620 colon): > 100 µM
TGI (MDA-MB-231 breast): > 100 µM
TGI (SF-539 CNS): > 100 µM
TGI (CCRF-CEM leukemia): > 100 µM
TGI (NCI-H460 lung): > 100 µM
TGI (MOLT-4 leukemia): > 100 µM
TGI (OVCAR-3 ovarian): > 100 µM
TGI (UACC-62 melanoma): > 100 µM

NS(=O)(=O)c1nnc(NS(=O)(=O)c2cccc3cccnc23)s1
TGI (SNB-19 CNS): > 100 µM
TGI (U251 CNS): > 100 µM
TGI (SW-620 colon): > 100 µM
TGI (MDA-MB-231 breast): > 100 µM
TGI (SF-539 CNS): > 100 µM
TGI (CCRF-CEM leukemia): > 100 µM
TGI (NCI-H460 lung): > 100 µM
TGI (MOLT-4 leukemia): > 100 µM
TGI (OVCAR-3 ovarian): > 100 µM
TGI (UACC-62 melanoma): > 100 µM

CC(=O)NC1C(OCc2ccccc2)OC(CO)C(O)C1OC(C)C(=O)NC(C(=O)NC(CCC(=O)NCCCNc1ccc([N+](=O)[O-])c2[nH]c3ccccc3c(=O)c12)C(N)=O)C(C)C (stereo not given)
TGI (SNB-19 CNS): > 100 µM
TGI (U251 CNS): > 100 µM
TGI (SW-620 colon): > 100 µM
TGI (MDA-MB-231 breast): > 100 µM
TGI (SF-539 CNS): > 100 µM
TGI (CCRF-CEM leukemia): > 100 µM
TGI (NCI-H460 lung): > 100 µM
TGI (MOLT-4 leukemia): > 100 µM
TGI (OVCAR-3 ovarian): > 100 µM
TGI (UACC-62 melanoma): > 100 µM

O=C1C(c2ccccc2)=C(c2ccccc2)C1(Cl)Cl
TGI (SNB-19 CNS): 32.9 µM
TGI (U251 CNS): 7.68 µM
TGI (SW-620 colon): 9.77 µM
TGI (MDA-MB-231 breast): 7.84 µM
TGI (SF-539 CNS): 9.22 µM
TGI (CCRF-CEM leukemia): 3.96 µM
TGI (NCI-H460 lung): 20.8 µM
TGI (MOLT-4 leukemia): 6.97 µM
TGI (OVCAR-3 ovarian): 7.34 µM
TGI (UACC-62 melanoma): 4.13 µM

COC(=O)C1=C(C)NC(C)=C(C(=O)OC)C1c1cccc(/[N+]([O-])=C/c2ccccc2)c1
TGI (SNB-19 CNS): > 100 µM
TGI (U251 CNS): > 100 µM
TGI (SW-620 colon): 38 µM
TGI (MDA-MB-231 breast): 32 µM
TGI (SF-539 CNS): > 100 µM
TGI (CCRF-CEM leukemia): 44.8 µM
TGI (NCI-H460 lung): > 100 µM
TGI (MOLT-4 leukemia): 68 µM
TGI (OVCAR-3 ovarian): 31.6 µM
TGI (UACC-62 melanoma): > 100 µM

C1=CC2C(C3CN(c4ccccc4)N=C13)C1C3C4C=CC21C=CC43 (stereo not given)
TGI (SNB-19 CNS): > 100 µM
TGI (U251 CNS): > 100 µM
TGI (SW-620 colon): > 100 µM
TGI (MDA-MB-231 breast): > 100 µM
TGI (SF-539 CNS): > 100 µM
TGI (CCRF-CEM leukemia): > 100 µM
TGI (NCI-H460 lung): > 100 µM
TGI (MOLT-4 leukemia): > 100 µM
TGI (OVCAR-3 ovarian): > 100 µM
TGI (UACC-62 melanoma): > 100 µM

NC1(c2cc3ccccc3s2)CCCCCC1
TGI (SNB-19 CNS): 34.8 µM
TGI (U251 CNS): 29.1 µM
TGI (SW-620 colon): 31.1 µM
TGI (MDA-MB-231 breast): 29.1 µM
TGI (SF-539 CNS): 32.8 µM
TGI (CCRF-CEM leukemia): 35.4 µM
TGI (NCI-H460 lung): 28.6 µM
TGI (MOLT-4 leukemia): 32.6 µM
TGI (OVCAR-3 ovarian): 29.2 µM
TGI (UACC-62 melanoma): 31.9 µM

[N-]=[N+]=C(C(=O)CN1CCCC1=O)S(=O)(=O)c1ccccc1
TGI (SNB-19 CNS): > 100 µM
TGI (U251 CNS): > 100 µM
TGI (SW-620 colon): > 100 µM
TGI (MDA-MB-231 breast): > 100 µM
TGI (SF-539 CNS): > 100 µM
TGI (CCRF-CEM leukemia): > 100 µM
TGI (NCI-H460 lung): > 100 µM
TGI (MOLT-4 leukemia): > 100 µM
TGI (OVCAR-3 ovarian): > 100 µM
TGI (UACC-62 melanoma): > 100 µM

CCOC(=O)c1ccc2nc3n(c2c1)C(c1c(F)cccc1F)SC3 (stereo not given)
TGI (SNB-19 CNS): > 100 µM
TGI (U251 CNS): > 100 µM
TGI (SW-620 colon): > 100 µM
TGI (MDA-MB-231 breast): > 100 µM
TGI (SF-539 CNS): > 100 µM
TGI (CCRF-CEM leukemia): > 100 µM
TGI (NCI-H460 lung): > 100 µM
TGI (MOLT-4 leukemia): > 100 µM
TGI (OVCAR-3 ovarian): > 100 µM
TGI (UACC-62 melanoma): > 100 µM
